{
  "source": "patent US20120277312A1",
  "about": "“Ethylgallate and Related Compounds as a Treatment for Sepsis and Septic Shock” (priority 2009, published 2012)",
  "key": {"catalase": {"molecular_target": "T1, catalase (Homo sapiens, UniProt P04040)", "T1 sequence (P04040 2-527 limits assumed)": "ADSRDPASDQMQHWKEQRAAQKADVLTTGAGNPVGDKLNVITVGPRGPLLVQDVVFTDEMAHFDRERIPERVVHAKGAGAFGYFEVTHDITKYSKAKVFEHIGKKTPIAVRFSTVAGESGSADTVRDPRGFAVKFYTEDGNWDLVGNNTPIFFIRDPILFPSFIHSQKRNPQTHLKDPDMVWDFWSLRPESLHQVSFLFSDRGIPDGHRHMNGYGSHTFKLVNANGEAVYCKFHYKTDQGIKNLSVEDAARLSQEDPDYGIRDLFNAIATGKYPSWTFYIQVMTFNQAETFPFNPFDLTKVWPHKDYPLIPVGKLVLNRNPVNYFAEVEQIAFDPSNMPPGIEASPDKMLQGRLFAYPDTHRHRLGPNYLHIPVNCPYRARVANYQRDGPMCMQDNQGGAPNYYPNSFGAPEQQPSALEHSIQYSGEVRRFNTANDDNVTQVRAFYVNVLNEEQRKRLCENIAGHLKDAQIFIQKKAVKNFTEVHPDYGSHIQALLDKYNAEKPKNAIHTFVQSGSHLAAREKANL", "test": "Conversion of catalase to compound I (wave-scan spectroscopy)", "assay_type": "biochemical", "description": "This generation appears to involve the mechanism described by Wentworth et al in which proteins can utilize water as a catalyst to generate H2O2 (12) Once formed by lysozyme, H2O2 then reacts with intrinsic catalase to form a species of catalase termed Compound I (2) Compound I then acts to generate cyclic-guanosine monophosphate which in turn causes vasodilation. […] These as well as other mechanisms may account for the efficacy of ethyl-gallate treatment in septic shock."}, "[1]": {"test_system": "lysozyme's vasodilatory effect in canine carotid artery preparation", "test": "Lysozyme-induced vasodilation in canine carotid artery preparation (in-vitro)", "protocol": "Lysozyme produces vasodilation by intrinsically generating hydrogen peroxide (H2O2) that leads to activation of signaling pathways resulting in these hemodynamic effects (7).\nEthyl gallate is added to food as an antioxidant. It is the ethyl ester of gallic acid. Though found naturally in a variety of plant sources including walnuts (8), ethyl gallate is produced from gallic acid and ethanol (9). […] It is of note that if a substance could not inhibit lysozyme's effect in-vitro, then it would be worthless to pursue an in-vivo study."}, "non-septic dog": {"test_system": "non-septic dog", "test": "Ethyl gallate infusion in non-septic dogs", "assay_type": "in vivo", "description": "The effect of ethyl-gallate treatment on hemodynamics in the non-septic animal was different from that found in the septic animal. In this protocol, 5 grams of ethyl-gallate were given in a similar manner over the course of the 5 hr treatment-phase of the study.\nWe have thus far studied 5 dogs in septic shock in which ethyl gallate was infused. We have compared the results obtained in this group with those found in septic animals (n=5) in which this treatment was not given. In addition, in preliminary experiments, we have looked at the effect of ethyl gallate infusion on hemodynamics in non-septic animals (n=3). In a time control non-septic group in which placebo (normal saline solution) was given, we have studied one animal.\nThe purpose of this study was to determine whether ethyl-gallate could reverse the fall in MAP that occurs in this sepsis model. Ethyl gallate was infused after MAP pressure fell approximately 30 to 40% from the baseline value in which this decline in MAP was not responsive to volume infusion to return Pwp to the baseline value (septic shock condition). This approach would be consistent with that observed in the clinical situation in which vasopressors, such as norepinephrine would be given at this interval. In the two sepsis groups, the animals were allocated in randomized fashion in which one received ethyl-gallate and volume infusion, while in the other, volume infusion alone was given. In the two non-sepsis groups, one received ethyl-gallate while the other received placebo treatment. In the non-sepsis groups, only maintenance volume for anesthesia and for placebo drugs was given over the course of the experiment."}, "[2]": {"test_system": "POX-induced vasodilation in carotid and superior mesenteric arterial preparations", "test": "Peroxacetic acid (POX)-induced vasodilation in carotid and superior mesenteric arterial preparations", "set-up": "species or system canine", "description": "POX is a hydroperoxide (slightly different from the molecule of hydrogen peroxide) that also may be released in septic shock by macrophages and inflammatory cells. […] However, the pathway by which POX caused vasodilation is much different than that caused by lysozyme. […] To some extent, therefore, the improvement in hemodynamics previously observed when ethyl-gallate was infused in our in-vivo study could have also been related to ethyl-gallate's inhibition of the POX pathway in addition to ethyl-gallate's inhibitory-effect on lysozyme mediated pathways.\nThe only similarity found between lysozyme and POX is that POX's mechanism of action is also independent of the endothelium and nitric oxide formation, since we could not prevent POX's vasodilatory effect by removal of the endothelium or by nitric oxide inhibition. In contrast to lysozyme, POX seems to cause vasodilation is by activation of an enzyme in the vascular tissue called prostaglandin H synthase (PHS). PHS has an important mechanism of action, in that after activation by hydroperoxides (such as POX), it can in turn activate the cyclooxygenase pathway leading to vasodilation."}, "[3]": {"settings": "non-septic dogs, 5 grams over 5 hr"}, "[4]": {"settings": "non-septic dogs, ethyl-gallate infusion"}},
  "data": [
    {"smiles": "CCOC(=O)c1cc(O)c(O)c(O)c1", "note": "[ethyl gallate]", "values": [
      {"measurement": "inhibition of degradation of catalase to compound I", "setting": "catalase", "result": "can inhibit"},
      {"measurement": "prevention of vasodilation caused by lysozyme", "setting": "[1]; canine carotid artery and superior mesenteric arterial preparations", "result": "prevented"},
      {"measurement": "block of lysozyme's vasodilatory effect", "setting": "[1]; canine carotid artery preparation, in-vitro", "result": "blocked"},
      {"measurement": "heart rate effect", "setting": "non-septic dog; non-septic dog, after infusion, FIG. 7", "result": "slight tachycardia"},
      {"measurement": "SVR as compared with pre-treatment", "setting": "non-septic dog; [3]", "result": "decrease"},
      {"measurement": "change in MAP", "setting": "non-septic dog; [3]", "result": "did not cause a change"},
      {"measurement": "CO", "setting": "non-septic dog; [4]", "result": "appeared to increase"},
      {"measurement": "SV", "setting": "non-septic dog; [4]", "result": "appeared to increase"},
      {"measurement": "SW", "setting": "non-septic dog; [4]", "result": "appeared to increase"},
      {"measurement": "inhibition of vasodilation caused by POX", "setting": "[2]", "result": "inhibited"}
    ]}
  ]
}
